This note sets out measurements from article PMC3454511 (The Journal of organic chemistry, 2012).

A short description of data set [1]: Plasma protein binding by rapid-equilibrium dialysis, human. To be noted: 37 °C for 5 h.
A short description of data set [2]: Microsomal stability, mouse. To be noted: % parent remaining at 1 hour.
A short description of a further data set: physchem. To be noted: thermodynamic from solid.
A short description of another data set: Plasma stability, mouse. The following applies: % parent remaining at 5 h.
A short description of data set [3]: Bidirectional Caco-2 permeability. It counts as in vitro ADME. To be noted: human, Caco-2.
The nature of data set [4]: Microsomal stability, human. The following applies: % parent remaining at 1 hour.
A short description of data set [5]: Plasma protein binding by rapid-equilibrium dialysis, mouse. The following applies: 37 °C for 5 h.
Another data set in a line: Plasma stability, human. The following applies: % parent remaining at 5 h.
In a further data set the test system is Caco-2 monolayer. Put plainly: Bidirectional Caco-2 permeability. It counts as in vitro ADME. The following applies: for Caco-2 A-B: A-B direction; for Caco-2 B-A: B-A direction.
Data set [6] in a line: Solubility in PBS and H2O, dry powder, 24 hour timepoint.
The nature of data set [7]: BBB parallel artificial membrane permeability assay. It counts as in vitro ADME. The following applies: for BBB PAMPA: Pe; for Papp: PAMPA.

Converted amounts (≈) assume the structure as drawn.

As for `CCCN1[C@H](CO)[C@H](c2ccccc2)C12CN(C)C2` [30b, (2S,3S)-1-Propyl-2-hydroxymethyl-3-phenyl-6-methyl-1,6-diazaspiro[3.3]heptane], in data set [1], the protein binding human came to 28 % bound. In [2], the microsomal stability mouse stood at 98 % remaining. Besides, in “physchem” (PBS, aqueous buffer), the solubility at 24 h is > 500 µM. For the same compound, in the data set “Plasma stability, mouse”, the plasma stability mouse was 106 % remaining. Besides, in data set [3], the Papp A→B amounted to 33 ×10⁻⁶ cm/s and the apparent permeability from basolateral to apical (Papp B→A) was 56 ×10⁻⁶ cm/s. For the same compound, in [4], the microsomal stability human was determined as 99 % remaining. The protein binding mouse in data set [5] is −6.0 % bound. Besides, the plasma stability human in “Plasma stability, human” came out at 86 % remaining.
Regarding `CS(=O)(=O)N1CC(=O)N2[C@H](CO)[C@H](c3ccccc3)[C@@H]2C1` [28c, (6R,7R,8S)-8-(Hydroxymethyl)-4-(methylsulfonyl)-7-phenyl-1,4-diazabicyclo [4.2.0] octan-2-one], the protein binding human in data set [1] is on record as −4.6 % bound. For the same compound, the microsomal stability mouse in data set [2] stood at 100 % remaining. Also, in “physchem” (PBS, aqueous buffer), the solubility at 24 h is > 500 µM. For the same compound, the plasma stability mouse in the data set “Plasma stability, mouse” came out at 106 % remaining. In [3], the Papp A→B was 17 ×10⁻⁶ cm/s and the apparent permeability from basolateral to apical (Papp B→A) is 20 ×10⁻⁶ cm/s. In addition, the microsomal stability human in data set [4] turned out to be 104 % remaining. Besides, the protein binding mouse in data set [5] is −2.3 % bound. Also, the plasma stability human in the data set “Plasma stability, human” is on record as 78 % remaining.
With `CCCN1[C@@H]2COc3ccccc3[C@@H]2[C@@H]1CNC(=O)c1ccccc1` [32a, N-(((1R,2aS,8bR)-2-Propyl-2,2a,3,8b-tetrahydro-1H-chromeno[3,4-b]azet-1-yl)methyl) benzamide], the protein binding human in [1] worked out at 95 % bound. For the same compound, in [2], the microsomal stability mouse is 0 % remaining. Besides, in “physchem” (PBS, aqueous buffer), the concentration in solution (solubility at 24 h) came to 43 µM (≈ 14.5 µg/mL). For the same compound, in the data set “Plasma stability, mouse”, the plasma stability mouse was determined as 102 % remaining. For the same compound, in data set [3], the apparent permeability from apical to basolateral (Papp A→B) amounted to 59 ×10⁻⁶ cm/s and the apparent permeability from basolateral to apical (Papp B→A) amounted to 52 ×10⁻⁶ cm/s. Further, the microsomal stability human in [4] stood at 0 % remaining. In [5], the protein binding mouse stood at 91 % bound. In addition, the plasma stability human in “Plasma stability, human” was determined as 94 % remaining.
As for `CCCN1C(CO)C2c3ccccc3N(S(C)(=O)=O)CC21` (racemic) [31c, ((±)-4-(Methylsulfonyl)-2-propyl-1,2,2a,3,4,8b-hexahydroazeto[2,3-c]quinolin-1-yl) methanol], the protein binding human in data set [1] is reported as 45 % bound. The microsomal stability mouse in data set [2] worked out at 34 % remaining. In “Plasma stability, mouse”, the plasma stability mouse came to 107 % remaining. Also, in the data set with Caco-2 monolayer, the “Caco-2 A-B” value is recorded as 56 10^−6 cm.s^−1 and the “Caco-2 B-A” value was 64 10^−6 cm.s^−1. In [4], the microsomal stability human stood at 69 % remaining. Besides, the protein binding mouse in data set [5] was 50 % bound. Also, in “Plasma stability, human”, the plasma stability human is 101 % remaining. In [6], the “solubility H2O” value was >500 µM and the “solubility PBS” value amounted to 478 µM (≈ 148 µg/mL). The “BBB PAMPA” value in [7] was 35 10^−6 cm s^−1.
For the compound `CCCN1[C@H](CO)[C@H](c2ccccc2)C12CNC2` [30a, (2S,3S)-1-Propyl-2-hydroxymethyl-3-phenyl-1,6-diazaspiro[3.3]heptane], the microsomal stability mouse in data set [2] is listed as 93 % remaining. Moreover, the solubility at 24 h in “physchem” (PBS, aqueous buffer) was > 500 µM. Besides, the plasma stability mouse in “Plasma stability, mouse” is 108 % remaining. Moreover, in data set [3], the Papp A→B stood at 3 ×10⁻⁶ cm/s and the basolateral-to-apical permeability (Papp B→A) was 12 ×10⁻⁶ cm/s. Also, the microsomal stability human in data set [4] amounted to 95 % remaining. The plasma stability human in “Plasma stability, human” came out at 106 % remaining.
`CCCN1C(CO)C2c3ccccc3NCC21` (racemic) [31a, ((±)-2-Propyl-1,2,2a,3,4,8b-hexahydroazeto[2,3-c]quinolin-1-yl) methanol]: the protein binding human in data set [1] amounted to 10 % bound. Besides, the microsomal stability mouse in data set [2] is on record as 94 % remaining. For the same compound, the plasma stability mouse in “Plasma stability, mouse” is 108 % remaining. Moreover, in the data set with Caco-2 monolayer, the “Caco-2 A-B” value is given as 43 10^−6 cm.s^−1 and the “Caco-2 B-A” value is 29 10^−6 cm.s^−1. Moreover, in [4], the microsomal stability human stood at 85 % remaining. The protein binding mouse in [5] was found to be 22 % bound. Further, in the data set “Plasma stability, human”, the plasma stability human came out at 97 % remaining. In [6], the “solubility H2O” value came out at 495 µM (≈ 115 µg/mL) and the “solubility PBS” value was >500 µM. Also, the “BBB PAMPA” value in data set [7] is on record as 31 10^−6 cm s^−1.
Turning to `CCCN1C2CN(Cc3ccc(F)cc3)CC1C2c1ccccc1` (centres unmarked) [27d, 3-(4-Fluorobenzyl)-7-phenyl-6-propyl-3,6-diazabicyclo[3.1.1]heptane], the protein binding human in data set [1] was found to be 98 % bound. Further, the microsomal stability mouse in data set [2] turned out to be 42 % remaining. Also, in the data set “physchem” (PBS, aqueous buffer), the solubility at 24 h was 335 µM (≈ 109 µg/mL). The same compound came in with a solubility at 24 h in “physchem” (water) of 346 µM (≈ 112 µg/mL). The plasma stability mouse in the data set “Plasma stability, mouse” is 90 % remaining. In data set [3], this compound came in with a Papp A→B of 14 ×10⁻⁶ cm/s and a Papp B→A of 7 ×10⁻⁶ cm/s. The microsomal stability human in data set [4] is 55 % remaining. Besides, the protein binding mouse in data set [5] is 98 % bound. In “Plasma stability, human”, the plasma stability human was 71 % remaining. Moreover, the Papp in data set [7] came to 111 ×10⁻⁶ cm/s.
Turning to `OC[C@@H]1[C@H](c2ccccc2)[C@@H]2CNCCCCN12` [29b, ((8R,9R,10S)-9-Phenyl-1,6-diazabicyclo[6.2.0]decan-10-yl)methanol], in [1], the protein binding human is given as 8 % bound. In addition, the microsomal stability mouse in data set [2] was 89 % remaining. Also, the solubility at 24 h in “physchem” (PBS, aqueous buffer) is > 500 µM. The concentration in solution in “physchem” (water) (solubility at 24 h) was 491 µM (≈ 121 µg/mL). For the same compound, in the data set “Plasma stability, mouse”, the plasma stability mouse came out at 94 % remaining. In [3], this compound had a Papp A→B of 2 ×10⁻⁶ cm/s and a basolateral-to-apical permeability (Papp B→A) of 8 ×10⁻⁶ cm/s. Besides, the microsomal stability human in data set [4] stood at 86 % remaining. The protein binding mouse in data set [5] was determined as 9 % bound. Also, the plasma stability human in the data set “Plasma stability, human” is 99 % remaining. Further, in data set [7], the Papp worked out at 6 ×10⁻⁶ cm/s.
In the case of `CCCN1[C@H](CO)[C@H](c2ccccc2)C12CN(C(C)=O)C2` [30c, (2S,3S)-1-Propyl-2-hydroxymethyl-3-phenyl-6-acetyl-1,6-diazaspiro[3.3]heptane], in [1], the protein binding human turned out to be 37 % bound. The microsomal stability mouse in [2] stood at 89 % remaining. Also, the solubility at 24 h in “physchem” (PBS, aqueous buffer) is > 500 µM. In addition, the plasma stability mouse in the data set “Plasma stability, mouse” came to 97 % remaining. Besides, in data set [3], the Papp A→B was 29 ×10⁻⁶ cm/s and the Papp B→A amounted to 35 ×10⁻⁶ cm/s. Moreover, the microsomal stability human in data set [4] is 94 % remaining. Moreover, in data set [5], the protein binding mouse was 32 % bound. For the same compound, the plasma stability human in “Plasma stability, human” is reported as 93 % remaining.
For the compound `CCCN1[C@@H]2COc3ccccc3[C@@H]2[C@@H]1CNS(C)(=O)=O` [32b, N-(((1R,2aS,8bR)-2-Propyl-2,2a,3,8b-tetrahydro-1H-chromeno[3,4-b]azet-1-yl)methyl) methanesulfonamide], the protein binding human in [1] was 37 % bound. For the same compound, the microsomal stability mouse in data set [2] is recorded as 63 % remaining. This compound showed a solubility at 24 h in the data set “physchem” (PBS, aqueous buffer) of 453 µM (≈ 141 µg/mL). The plasma stability mouse in “Plasma stability, mouse” is recorded as 105 % remaining. In data set [3], the apparent permeability from apical to basolateral (Papp A→B) stood at 66 ×10⁻⁶ cm/s and the apparent permeability from basolateral to apical (Papp B→A) stood at 57 ×10⁻⁶ cm/s. In addition, the microsomal stability human in data set [4] is on record as 73 % remaining. Besides, the protein binding mouse in data set [5] came out at 37 % bound. The plasma stability human in the data set “Plasma stability, human” is given as 97 % remaining.
In the case of `CN1CC(=O)N2[C@H](CO)[C@H](c3ccccc3)[C@@H]2C1` [28a, (6R,7R,8S)-8-(Hydroxymethyl)-4-methyl-7-phenyl-1,4-diazabicyclo[4.2.0]octan-2-one], the microsomal stability mouse in data set [2] was 104 % remaining. Also, in “physchem” (PBS, aqueous buffer), the solubility at 24 h is > 500 µM. Further, the plasma stability mouse in “Plasma stability, mouse” was determined as 116 % remaining. In [3], this compound came in with a Papp A→B of 43 ×10⁻⁶ cm/s and an apparent permeability from basolateral to apical (Papp B→A) of 31 ×10⁻⁶ cm/s. Besides, the microsomal stability human in [4] is 112 % remaining. Moreover, the plasma stability human in “Plasma stability, human” was found to be 99 % remaining.
For `O=C1CNC[C@H]2[C@@H](c3ccccc3)[C@@H](COC(c3ccccc3)(c3ccccc3)c3ccccc3)N12` [28b, (6R,7R,8S)-7-Phenyl-8-((trityloxy)methyl)-1,4-diazabicyclo[4.2.0]octan-2-one], in “physchem” (PBS, aqueous buffer), the solubility at 24 h was > 500 µM. In data set [3], this compound came in with an apical-to-basolateral permeability (Papp A→B) of 12 ×10⁻⁶ cm/s and a Papp B→A of 17 ×10⁻⁶ cm/s.
On to `CCCN1C2CNCC1C2c1ccccc1` (centres unmarked) [27a, 7-Phenyl-6-propyl-3,6-diazabicyclo[3.1.1]heptane], for which the protein binding human in data set [1] is 49 % bound. Besides, the microsomal stability mouse in data set [2] was determined as 79 % remaining. Also, the solubility at 24 h in the data set “physchem” (PBS, aqueous buffer) was > 500 µM; in “physchem” (water), > 500 µM. Also, the plasma stability mouse in “Plasma stability, mouse” was 103 % remaining. Further, in data set [3], the Papp A→B turned out to be 30 ×10⁻⁶ cm/s. For the same compound, in [3], the Papp B→A amounted to 22 ×10⁻⁶ cm/s. The microsomal stability human in data set [4] is on record as 94 % remaining. Besides, the protein binding mouse in data set [5] amounted to 35 % bound. The plasma stability human in “Plasma stability, human” was 102 % remaining. The Papp in [7] was 4 ×10⁻⁶ cm/s.
Consider `CN1CCCCN2[C@H](CO)[C@H](c3ccccc3)[C@@H]2C1` [29c, ((8R,9R,10S)-6-Methyl-9-phenyl-1,6-diazabicyclo[6.2.0]decan-10-yl) methanol], for which, in [1], the protein binding human was 1 % bound. In addition, the microsomal stability mouse in [2] is 97 % remaining. In “physchem” (PBS, aqueous buffer), the solubility at 24 h worked out at 494 µM (≈ 129 µg/mL). Also, the solubility at 24 h in “physchem” (water) was > 500 µM. Further, the plasma stability mouse in “Plasma stability, mouse” is recorded as 78 % remaining. In data set [3], this compound returned a Papp A→B of 14 ×10⁻⁶ cm/s and a Papp B→A of 21 ×10⁻⁶ cm/s. In [4], the microsomal stability human is given as 96 % remaining. Besides, the protein binding mouse in data set [5] is 5 % bound. In addition, the plasma stability human in “Plasma stability, human” came to 82 % remaining. The Papp in data set [7] stood at 9 ×10⁻⁶ cm/s.
